Measured values as given in patent EP4273147A1, “SUBSTITUTED SPIROLACTAMS, SALTS THEREOF AND THEIR USE AS HERBICIDALLY ACTIVE SUBSTANCES” (Bayer Aktiengesellschaft, priority 2022, dated 2023).

Experiments:
ECHCG [1] = assay: Herbicidal pre-emergence action (Table A2); assay type: in vivo, Echinochloa crus-galli; settings: visual grading after ca. 3 weeks
How it was run: (§1)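 Weed seeds are sown into sandy loam in pots and covered with soil, with two species per pot, one monocot and one dicot.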

LOLRI [2] = assay: Herbicidal pre-emergence action (Table A3); assay type: in vivo, Lolium rigidum; settings: visual grading after ca. 3 weeks
How it was run: as §1

MATIN = assay: Herbicidal pre-emergence action (Table A4); assay type: in vivo, Matricaria inodora; settings: application rate 1280 g/ha; visual grading after ca. 3 weeks
How it was run: as §1

SETVI [3] = assay: Herbicidal pre-emergence action (Table A5); assay type: in vivo, Setaria viridis; settings: application rate 320 g/ha; visual grading after ca. 3 weeks
How it was run: as §1

STEME [4] = assay: Herbicidal pre-emergence action (Table A6); assay type: in vivo, Stellaria media; settings: application rate 320 g/ha; visual grading after ca. 3 weeks
How it was run: as §1

POAAN [5] = assay: Herbicidal pre-emergence action (Table A7); assay type: in vivo, Poa annua; settings: application rate 320 g/ha, visual grading after ca. 3 weeks
How it was run: as §1

KCHSC [6] = assay: Herbicidal pre-emergence action (Table A10); assay type: in vivo, Kochia scoparia; settings: visual grading after ca. 3 weeks
How it was run: as §1

DIGSA [7] = assay: Herbicidal pre-emergence action (Table A12); assay type: in vivo, Digitaria sanguinalis; settings: application rate 320 g/ha; visual grading after ca. 3 weeks
How it was run: as §1

DIGSA [8] = assay: Herbicidal post-emergence action (Table B12); assay type: in vivo, Digitaria sanguinalis
Procedure: (§2) Seeds of mono- and dicotyledonous weed plants were placed in plastic pots in sandy loam soil (doubly sown with in each case one species of mono- or dicotyledonous weed plants per pot), covered with soil and cultivated in a greenhouse under controlled growth conditions. 2 to 3 weeks after sowing, the test plants were treated at the one-leaf stage. […] After the test plants had been kept in the greenhouse under optimum growth conditions for about 3 weeks, the activity of the preparations was rated visually in comparison to untreated controls. For example, 100% activity = the plants have died, 0% activity = like control plants.

ABUTH [9] = assay: Herbicidal pre-emergence action (Table A1); assay type: in vivo, Abutilon theophrasti; settings: application rate 1280 g/ha; visual grading after ca. 3 weeks vs untreated controls (100% = plants have died off, 0% = as control plants)
How it was run: as §1

AMARE [10] = assay: Herbicidal pre-emergence action (Table A8); assay type: in vivo, Amaranthus retroflexus; settings: application rate 320 g/ha; visual grading after ca. 3 weeks vs untreated controls (100% = plants have died off, 0% = as control plants)
How it was run: as §1

VERPE [11] = assay: Herbicidal pre-emergence action (Table A11); assay type: in vivo, Veronica persica; settings: application rate 1280 g/ha; visual grading after ca. 3 weeks
How it was run: as §1

ABUTH [12] = assay: Herbicidal post-emergence action (Table B1); assay type: in vivo, Abutilon theophrasti; settings: application rate 320 g/ha; treated at one-leaf stage; rated visually after about 3 weeks vs untreated controls (100% = plants have died, 0% = like control plants)
How it was run: (§3)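 Visual rating of activity versus untreated plants about 3 weeks after treatment: 0% means no difference from controls, 100% means complete kill. Test weeds were raised from seed in sandy loam under controlled greenhouse conditions and sprayed at the one-leaf stage.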

ALOMY = assay: Herbicidal post-emergence action (Table B2); assay type: in vivo, Alopecurus myosuroides; settings: application rate 1280 g/ha; rated visually after about 3 weeks
Procedure: as §2

ECHCG [13] = assay: Herbicidal post-emergence action (Table B3); assay type: in vivo, Echinochloa crus-galli; settings: Echinochloa crus-galli, post-emergence, 504 h; application rate 320 g/ha; rated visually after about 3 weeks; read-out: post-emergence activity against ECHCG
How it was run: as §3

KCHSC [14] = assay: Herbicidal post-emergence action (Table B4); assay type: in vivo, Kochia scoparia; settings: application rate 1280 g/ha; rated visually after about 3 weeks
Procedure: as §2

LOLRI [15] = assay: Herbicidal post-emergence action (Table B5); assay type: in vivo, Lolium rigidum; settings: application rate 320 g/ha; rated visually after about 3 weeks
Procedure: as §2

POAAN [16] = assay: Herbicidal post-emergence action (Table B7); assay type: in vivo, Poa annua; settings: application rate 320 g/ha
How it was run: as §3

SETVI [17] = assay: Herbicidal post-emergence action (Table B8); assay type: in vivo, Setaria viridis; settings: application rate 320 g/ha
How it was run: as §3

STEME [18] = assay: Herbicidal post-emergence action (Table B9); assay type: in vivo, Stellaria media; settings: application rate 320 g/ha
Procedure: as §2

VERPE [19] = assay: Herbicidal post-emergence action (Table B10); assay type: in vivo, Veronica persica; settings: application rate 320 g/ha
How it was run: as §3

AMARE [20] = assay: Herbicidal post-emergence action (Table B11); assay type: in vivo, Amaranthus retroflexus; settings: application rate 1280 g/ha
How it was run: as §3

Structure (SMILES): O=C1N(Cc2ccccc2)CCC12CCCN(Cc1c(F)cccc1F)C2=O (racemic) [I-089]
- pre-emergence activity against ECHCG (ECHCG [1]; application rate 320 g/ha): 100%
- pre-emergence activity against LOLRI (LOLRI [2]; application rate 320 g/ha): 100%
- pre-emergence activity against MATIN (MATIN): 90%
- pre-emergence activity against SETVI (SETVI [3]): 100%
- pre-emergence activity against STEME (STEME [4]): 90%
- pre-emergence activity against POAAN (POAAN [5]): 100%
- pre-emergence activity against KCHSC (KCHSC [6]; application rate 1280 g/ha): 90%
- pre-emergence activity against DIGSA (DIGSA [7]): 90%
- post-emergence activity against DIGSA (DIGSA [8]; application rate 1280 g/ha): 90%

Structure (SMILES): O=C1N(Cc2cnc(Br)s2)CCCC12CCCN(Cc1cnc(Br)s1)C2=O (single isomer, unassigned; (+)) [I-205, (+)-2,8-bis[(2-bromo-1,3-thiazol-5-yl)methyl]-2,8-diazaspiro[5.5]undecane-1,7-dione]
- pre-emergence activity against ABUTH (ABUTH [9]): 90%
- pre-emergence activity against ECHCG (ECHCG [1]; application rate 1280 g/ha): 90%
- pest or weed control at 1280 g/ha (LOLRI [2]; Lolium rigidum, pre-emergence, 504 h, application rate 1280 g/ha, read-out: pre-emergence activity against LOLRI): 100%
- pre-emergence activity against MATIN (MATIN): 90%
- pre-emergence activity against SETVI (SETVI [3]): 100%
- pre-emergence activity against STEME (STEME [4]): 90%
- pest or weed control at 320 g/ha (POAAN [5]; Poa annua, pre-emergence, 504 h, read-out: pre-emergence activity against POAAN): 100%
- pre-emergence activity against AMARE (AMARE [10]): 90%
- pre-emergence activity against KCHSC (KCHSC [6]; application rate 320 g/ha): 100%
- pre-emergence activity against VERPE (VERPE [11]): 100%
- pre-emergence activity against DIGSA (DIGSA [7]): 90%
- post-emergence activity against ABUTH (ABUTH [12]): 90%
- post-emergence activity against ALOMY (ALOMY): 90%
- pest or weed control at 320 g/ha (ECHCG [13]): 90%
- post-emergence activity against KCHSC (KCHSC [14]): 90%
- post-emergence activity against LOLRI (LOLRI [15]): 90%
- post-emergence activity against POAAN (POAAN [16]): 90%
- post-emergence activity against SETVI (SETVI [17]): 90%
- post-emergence activity against STEME (STEME [18]): 90%
- post-emergence activity against VERPE (VERPE [19]): 90%
- post-emergence activity against AMARE (AMARE [20]): 90%
- post-emergence activity against DIGSA (DIGSA [8]; application rate 320 g/ha): 90%
